# From publication PMC7395068, “The evolution of strategies to minimise the risk of human drug-induced liver injury (DILI) in drug discovery and development” (Archives of Toxicology, 2020)
# Read-outs that look alike come from different tables or passages of the source.
# Experiments:
# [1] = test system: HepaRG spheroids; assay: Combined HCI (HCS) and cellular ATP 3D assay in HepaRG spheroids; details: for HepaRG <25x Avg Cmax ATP / HepaRG <100x Avg Cmaxu ATP: ATP endpoint; for HepaRG <25x Avg Cmax ATP / HepaRG <25x Avg Cmax HCS / HepaRG <25x Avg Cmax All: cut-off <25x Avg Cmax; for HepaRG <100x Avg Cmaxu ATP / HepaRG <100x Avg Cmaxu HCS / HepaRG <100x Avg Cmaxu All: cut-off <100x Avg Cmaxu; for HepaRG <25x Avg Cmax HCS / HepaRG <100x Avg Cmaxu HCS: HCS endpoints; for HepaRG <25x Avg Cmax All: all endpoints (ATP and HCS); for HepaRG Cmax max All / HepaRG Cmax min All / HepaRG <10 uM All / HepaRG <100x Avg Cmaxu All: all endpoints; for HepaRG Cmax max All: Cmax max used; for HepaRG Cmax min All: Cmax min used; for HepaRG <10 uM All: cut-off <10 uM; for AC50 / minimal effective concentration: Homo sapiens; for HepaRG <25x Avg Cmax ATP / HepaRG <100x Avg Cmaxu ATP / HepaRG <25x Avg Cmax HCS / HepaRG <100x Avg Cmaxu HCS / HepaRG <25x Avg Cmax All / HepaRG Cmax max All / HepaRG Cmax min All / HepaRG <10 uM All / HepaRG <100x Avg Cmaxu All / AC50 / minimal effective concentration: HepaRG; for DILI prediction HepaRG spheroids (HCS-MEC): Microtissue model structural based (HCI), combined HCS and ATP, MEC < 25 × Cmax.tot cut-off
# Description: 3D spheroid models consisting of either primary human hepatocytes with non-parenchymal cells (hLiMT’s) or HepaRG cells (HepaRG spheroids) were assessed for size (MS), oxidative stress (OS), MMP, mitochondrial mass (MM), GSH and cellular ATP content following drug exposure. Fluorescent images are acquired using the confocal mode of an ArrayScan™ XTI HCI reader (ThermoScientific) following which cellular ATP was measured using 3D CellTiter-Glo (Promega).
# [2] = cited from earlier work
# [3] = test system: THLE or HepG2 cells, isolated mitochondria, BSEP; details: cited from earlier work
# [4] = Plasma free fraction (fu) and unbound Cmax (Cmax,u); type: in vitro ADME, human; details: unbound plasma Cmax
# Description: The prediction of DILI severity was evaluated further using the 3D combined HCI assays using plasma-free fraction. The majority of fu values were obtained from literature, when unavailable in-house prediction was utilised. Unbound plasma Cmax concentrations (Cmax,u) were derived by multiplying total plasma Cmax with the corresponding free fraction (fu) for each compound.
# [5] = test system: hLiMTs; details: cited from earlier work
# [6] = test system: isolated mouse liver mitochondria; details: In vitro Assay; ref Porceddu 2012; cited from earlier work
# [7] = cited from earlier work; remark: listed apart in the source
# [8] = test system: human hepatocytes; details: cited from earlier work
# [9] = plasma free fraction; cited from earlier work
# [10] = test system: PHH; details: cited from earlier work
# [11] = test system: HepG2 C3A spheroid, BSEP, Glu/Gal in HepG2 cells, bioactivation; details: cited from earlier work
# [12] = test system: PHH spheroids; details: cited from earlier work; for hLiMTs ATP <20 x Cmax: In vitro Assay, ref Vorrink 2018
# [13] = test system: hLiMTs; assay: Combined HCI (HCS) and cellular ATP 3D assay in hLiMTs; details: for AC50 / minimal effective concentration: Homo sapiens; for DILI prediction hLiMTs (HCS-MEC): Microtissue model structural based (HCI), combined HCS and ATP, MEC < 25 × Cmax.tot cut-off; for hLiMTs <25x Avg Cmax ATP / hLiMTs <100x Avg Cmaxu ATP: ATP endpoint; for hLiMTs <25x Avg Cmax ATP / hLiMTs <25x Avg Cmax HCS / hLiMTs <25x Avg Cmax All: cut-off <25x Avg Cmax; for hLiMTs <100x Avg Cmaxu ATP / hLiMTs <100x Avg Cmaxu HCS / hLiMTs <100x Avg Cmaxu All: cut-off <100x Avg Cmaxu; for hLiMTs <25x Avg Cmax HCS / hLiMTs <100x Avg Cmaxu HCS: HCS endpoints; for hLiMTs <25x Avg Cmax All: all endpoints (ATP and HCS); for hLiMTs Cmax max All / hLiMTs Cmax min All / hLiMTs <10 uM All / hLiMTs <100x Avg Cmaxu All: all endpoints; for hLiMTs Cmax max All: Cmax max used; for hLiMTs Cmax min All: Cmax min used; for hLiMTs <10 uM All: cut-off <10 uM
# [14] = test system: HepG2 cells, primary human hepatocytes; details: In vitro Assay; ref Garside 2014; cited from earlier work
# [15] = Modeled in vitro assays (cytotoxicity, mitochondrial dysfunction, BSEP), ref Aleo et al. 2019
# [16] = In vitro Assay, ref Proctor 2017
structure (smiles),measurement,setting,value
CCN(CC)CC#CCOC(=O)C(O)(c1ccccc1)C1CCCCC1 (stereo not drawn) [oxybutynin],HepaRG <25x Avg Cmax ATP,[1],-ve
same,HepaRG <100x Avg Cmaxu ATP,[1],-ve
same,HepaRG <25x Avg Cmax HCS,[1],-ve
same,HepaRG <100x Avg Cmaxu HCS,[1],-ve
same,HepaRG <25x Avg Cmax All,[1],-ve
same,HepaRG Cmax max All,[1],-ve
same,HepaRG Cmax min All,[1],-ve
same,HepaRG <10 uM All,[1],-ve
same,HepaRG <100x Avg Cmaxu All,[1],-ve
same,AC50,[1]; read-out: ATP endpoint AC50,28.5 µM
same,minimal effective concentration,[1]; read-out: ATP endpoint MEC,16.1 µM
same,AC50,[1]; read-out: HCS endpoint AC50,64.5 µM
same,minimal effective concentration,[1]; read-out: HCS endpoint MEC,10.3 µM
same,DILI prediction HepaRG spheroids (HCS-MEC),[1],-VE
same,Assigned DILI category,[2]; in vivo,1
same,In vivo DILI,[2]; in vivo,-VE
same,"Rule of Two hybrid HRM Score ≥8, Aleo (2019)",[3],-VE
same,"Human plasma Cmax,u",[4],1 nM
same,hLiMTs ATP <100uM,[5],-VE
same,"hLiMTs/100uM, Proctor (2017)",[5],-VE
same,in vitro data EC2<=1x Cmax,[6],-VE
same,"DILI +VE (5-8), DILI -VE (-4)",[7]; in vivo,-VE
same,DILI severity category (Chen et al. [2016]),[7]; in vivo,No
same,"DILI in vitro assay prediction, Xu (2008)",[8],-VE
same,Structural based (HCI),[8],-VE
same,fu,[9],0.030
same,PHH ATP <100uM,[10],-VE
same,"PHH/100uM, Proctor (2017)",[10],-VE
same,"Bayesian Machine Learning DILI prediction, Williams (2019)",[11],-VE
same,hLiMTs ATP <20 x Cmax,[12],-VE
same,"DILI in vitro assay prediction, Vorrink (2018)",[12],-VE
same,AC50,[13]; read-out: HCS endpoint AC50,6.06 µM
same,minimal effective concentration,[13]; read-out: HCS endpoint MEC,2.11 µM
same,DILI prediction hLiMTs (HCS-MEC),[13],-VE
same,hLiMTs <25x Avg Cmax ATP,[13],-ve
same,hLiMTs <100x Avg Cmaxu ATP,[13],-ve
same,hLiMTs <25x Avg Cmax HCS,[13],-ve
same,hLiMTs <100x Avg Cmaxu HCS,[13],-ve
same,hLiMTs <25x Avg Cmax All,[13],-ve
same,hLiMTs Cmax max All,[13],-ve
same,hLiMTs Cmax min All,[13],-ve
same,hLiMTs <10 uM All,[13],+ve (<10 uM)
same,hLiMTs <100x Avg Cmaxu All,[13],-ve
C1CCC(C(CC2CCCCN2)C2CCCCC2)CC1 (stereo not drawn) [perhexiline],HepaRG <25x Avg Cmax ATP,[1],+ve
same,HepaRG <100x Avg Cmaxu ATP,[1],+ve (<100x Avg Cmaxu)
same,HepaRG <25x Avg Cmax HCS,[1],+ve
same,HepaRG <100x Avg Cmaxu HCS,[1],+ve (<100x Avg Cmaxu)
same,HepaRG <25x Avg Cmax All,[1],+ve
same,HepaRG Cmax max All,[1],+ve
same,HepaRG Cmax min All,[1],+ve
same,HepaRG <10 uM All,[1],+ve (<10 uM)
same,HepaRG <100x Avg Cmaxu All,[1],+ve (<100x Avg Cmaxu)
same,AC50,[1]; read-out: ATP endpoint AC50,3.69 µM
same,minimal effective concentration,[1]; read-out: ATP endpoint MEC,1.76 µM
same,AC50,[1]; read-out: HCS endpoint AC50,6.32 µM
same,minimal effective concentration,[1]; read-out: HCS endpoint MEC,0.693 µM
same,DILI prediction HepaRG spheroids (HCS-MEC),[1],+VE (MEC < 25 × Cmax.tot cut-off)
same,Assigned DILI category,"[2]; Chen et al. 2016 or literature alignment, ref Chen et al. 2016",3
same,In vivo DILI,[2]; […],+VE
same,In vivo DILI,[2]; ref Aleo 2019,+VE
same,In vivo DILI,[2]; ref Garside 2014,+VE
same,In vivo DILI,[2]; ref Porceddu 2012,+VE
same,In vivo DILI,[2]; ref Proctor 2017,+VE
same,In vivo DILI,[2]; ref Vorrink 2018,+VE
same,In vivo DILI,[2]; ref Williams 2019,+VE
same,In vivo DILI,[2]; ref Xu 2008,+VE
same,Partition Hybrid HRM Score,"[3]; In vitro Assay, ref Aleo 2019",+VE
same,Ro2 Hybrid HRM Score,"[3]; In vitro Assay, ref Aleo 2019",+VE
same,"Partition Hybrid HRM Score ≥4, Aleo (2019)",[3]; [15],+VE (Partition Hybrid HRM Score ≥4)
same,"Partition Hybrid HRM Score ≥8, Aleo (2019)",[3]; [15],+VE (Partition Hybrid HRM Score ≥8)
same,"Rule of Two hybrid HRM Score ≥3, Aleo (2019)",[3]; [15],+VE (Rule of Two hybrid HRM Score ≥3)
same,"Rule of Two hybrid HRM Score ≥8, Aleo (2019)",[3]; [15],+VE (Rule of Two hybrid HRM Score ≥8)
same,hLiMTs ATP <100uM,[5]; [16],+VE (IC50 threshold of 100 µM)
same,"hLiMTs/100uM, Proctor (2017)","[5]; hLiMTs, ATP, IC50 threshold 100 µM, ref Proctor et al. 2017",+VE (IC50 threshold of 100 µM)
same,in vitro data EC2<=1x Cmax,[6],+VE
same,in vitro data EC20<=2uM,[6],+VE
same,DILI severity category (Chen et al. [2016]),"[7]; LTKB DILIrank category, ref Chen et al. 2016",Most
same,DILI severity category (Chen 2016),"[7]; human DILI classification, LTKB DILIrank, ref Chen et al. 2016",Most
same,DILI severity category,"[7]; human DILI severity, ref Chen et al.",Most
same,"DILI +VE (5-8), DILI -VE (-4)",[7]; ref Chen 2016,+VE
same,DILI severity category,[7]; ref Chen 2016,vMost-DILI-Concern
same,Structural based (HCI),"[8]; In vitro Assay, ref Xu 2008",+VE
same,"DILI in vitro assay prediction, Xu (2008)","[8]; Structural based (HCI), human hepatocytes, ref Xu et al. 2008",+VE
same,fu,[9],0.100
same,"PHH/100uM, Proctor (2017)","[10]; 2D PHH, ATP, IC50 threshold 100 µM, ref Proctor et al. 2017",+VE (IC50 threshold of 100 µM)
same,PHH ATP <100uM,[10]; [16],+VE (IC50 threshold of 100 µM)
same,"Bayesian Machine Learning DILI prediction, Williams (2019)","[11]; Bayesian modeling, ref Williams et al. 2019",+VE
same,Bayesian Machine Learning,"[11]; In vitro Assay, ref Williams 2019",+VE
same,hLiMTs ATP <20 x Cmax,[12],+VE (IC20 < 20 × Cmax.tot cut-off)
same,"DILI in vitro assay prediction, Vorrink (2018)","[12]; PHH spheroids, ATP, 14 days, IC20 < 20 × Cmax.tot, ref Vorrink et al. 2018",+VE (IC20 < 20 × Cmax.tot cut-off)
same,Cluster 1-6 +VE Assay,[14],+VE
same,AC50,[13]; read-out: ATP endpoint AC50,1.69 µM
same,minimal effective concentration,[13]; read-out: ATP endpoint MEC,1.49 µM
same,AC50,[13]; read-out: HCS endpoint AC50,1.75 µM
same,minimal effective concentration,[13]; read-out: HCS endpoint MEC,0.354 µM
same,DILI prediction hLiMTs (HCS-MEC),[13],+VE (MEC < 25 × Cmax.tot cut-off)
same,hLiMTs <25x Avg Cmax ATP,[13],+ve
same,hLiMTs <100x Avg Cmaxu ATP,[13],+ve (<100x Avg Cmaxu)
same,hLiMTs <25x Avg Cmax HCS,[13],+ve
same,hLiMTs <100x Avg Cmaxu HCS,[13],+ve (<100x Avg Cmaxu)
same,hLiMTs <25x Avg Cmax All,[13],+ve
same,hLiMTs Cmax max All,[13],+ve
same,hLiMTs Cmax min All,[13],+ve
same,hLiMTs <10 uM All,[13],+ve (<10 uM)
same,hLiMTs <100x Avg Cmaxu All,[13],+ve (<100x Avg Cmaxu)
